Source: PMC7414126 (Scientific Reports, 2020)
Where two headings read alike, the source gives them in different places.

Legend:
hH2R [1] = target: T1, hH2R (Homo sapiens, UniProt P25021); assay: Flow cytometric saturation binding assay with HEK293T-hH2R-qs5-HA cells; parameters: expressed in transfected cells; host or cells: HEK293T-hH2R-qs5-HA cells; settings: saturation binding at HEK293T-hH2R-qs5-HA cells; mean ± SEM; read-out: pKd (Flow cytometry) (converted)
Experimental: All flow cytometric measurements were performed with FACSCanto™II flow cytometer (Becton Dickinson, Heidelberg, Germany), equipped with an argon laser (488 nm) and a red diode laser (633 nm) (settings: FCS: A, log, 0 V; SSC: A, log, 252 V; ACP: A,H,W, log, 350 V or PerCP-Cy5-5: A,H, log 485 V or PE: A,H,W, log, 420 V) according to general protocols with minor modifications.^4,5 All measurements were performed in duplicate and recorded either in channel PerCP-Cy5 (Py-1, excitation: 488 nm), APC (BODIPY 630/650, excitation: 633 nm) or PE (TAMRA, excitation: 488 nm). Data acquisition was stopped after 10,000 gated events.
Cell culture and preparation of HEK293T-hH2R-qs5-HA cells was performed as described.^4 Briefly, cells were maintained in 25 or 175 cm^2 flasks (Sarstedt, Nümbrecht, Germany) in a humidified atmosphere (95% air, 5% CO2) at 37 °C using Dulbecco`s Modified Eagle`s Medium supplemented with 2 mM L-glutamine (Sigma-Aldrich, Munich, Germany), 10% FCS, 400 µg/mL geneticin (G418), and 100 µg/mL hygromycin B (AG Scientific, San Diego, CA, USA). On the day of the experiment, cells were detached with trypsin/EDTA (0.05%/0.2%) and centrifuged (500 x g, 5 min). The cell pellet was resuspended in Leibovitz’ L-15 medium containing 1% FCS and the cell density was adjusted to 1 x 10^6 cells/mL. The serial dilutions of the tested fluorescent ligands and famotidine (competitor, for non-specific binding) were prepared in DMSO/H2O (1:1, v/v). All incubation steps were performed in 96-well Primaria^TM plates (CORNING, NY, USA). 200 µL of the adjusted cell suspension were either added to 2 µL of DMSO/H2O (1:1, v/v, total binding) or to 2 µl of famotidine (300-fold excess over the fluorescent ligand, non-specific binding). Incubation was started by addition of 2 µL of the respective fluorescent ligand in different concentrations (100-fold concentrated with respect to the final concentration). […] Samples were transferred to 5 mL polystyrol FACS tubes (Sarstedt, Nümbrecht, Germany) and measured immediately. […]

NLuc-hH2R = target: T2, NLuc-hH2R (Homo sapiens, UniProt P25021); assay: NanoBRET saturation binding assay
T2 construct: membrane signal peptide of the murine 5HT3A receptor (N); expressed in transfected cells
Experimental: KG, Wertheim, Germany). The cells were then incubated at 37 °C in a humidified atmosphere (no additional CO2) overnight. […] After 60 min incubation time at 27 °C, 10 μL of the substrate furimazine, which was diluted according to manufacturer's protocol beforehand, were added. After 5 min of equilibration time at 27 °C, the measurement was started. […] After addition of the diluted substrate, the plate was placed inside the reader for 5 min to equilibrate. […] Dissociation experiments were conducted in wells, which have been preincubated with 8 as described above for association experiments. […] All measurements were performed on a TECAN InfiniteLumi plate reader (TECAN, Grödig, Austria) at 27 °C using the Blue2 NB (460 nm ± 35 nm, bandpass) and the Red NB (> 610 nm, longpass) filter combination with an integration time of 100 ms. For the kinetic experiments, integration time was increased to 500 ms for both channels to reduce noise. BRET ratios were calculated by dividing the acceptor emission (red NB) by the donor luminescence (Blue2 NB). For all BRET binding experiments, specific binding was calculated by subtracting non-specific binding from total binding yielding the “corrected BRET ratio”. For saturation binding experiments, total and non-specific binding were fitted simultaneously using the “one-site total and nonspecific binding” fit. Specific binding was fitted accordingly applying the “one-site specific binding” fit. […] The normalized competition binding curves were then fitted with a four-parameter logistic fit yielding pIC50-values. These were transformed into pKi-values using the Cheng-Prusoff equation[38].

hH2R [2] = target: T1, hH2R; assay: β-Arrestin2 recruitment assay (split-luciferase complementation), HEK293T-ARRB2-H2R cells; assay type: cell-based; parameters: expressed in transfected cells; host or cells: HEK293T-ARRB2-H2R cell line; settings: read-out: pKb (β-arrestin2 recruitment) (converted)
Experimental: One day prior to the experiment, the cells were detached with trypsin/EDTA (0.05%/0.2%) and were centrifuged (500 x g, 5 min). The cells were resuspended in Leibovitz’ L-15 medium + 5% FCS + 10 mM HEPES and the density of the suspension was adjusted to 1.25 x 10^6 cells/mL (agonist mode) or 1.4 x 10^6 cells/mL (antagonist mode). 80 µL (agonist mode) or 70 µL (antagonist mode) of the cell suspension were seeded in white, tissue culture-treated, flat bottom 96-well microtiter plates (Brand, Wertheim, Germany). The cells were incubated at 37 °C overnight in a water saturated atmosphere w/o additional CO2. […] In the meantime, serial dilutions of the tested compounds (10-fold concentrated with respect to the final concentration) were prepared in L-15 + 10 mM HEPES and pre-warmed to 37 °C. After the baseline-read, the dilutions of the test compounds (10 µL/well) were transferred to the 96-well plate. […] For the determination of antagonism, the dilutions of the test compounds (10 µL/well) were transferred to the 96-well plate directly after the addition of D-luciferin (as described above) and the baseline was recorded like in the agonist mode. […] Normalized data were fitted applying a four-parameter logistic fit yielding pIC50 values, which were then transformed into pKb values using the Cheng-Prusoff equation.^8 All data analysis was performed using Prism 5.0c (GraphPad, San Diego, CA, USA).

T1 sequence (P25021 whole entry): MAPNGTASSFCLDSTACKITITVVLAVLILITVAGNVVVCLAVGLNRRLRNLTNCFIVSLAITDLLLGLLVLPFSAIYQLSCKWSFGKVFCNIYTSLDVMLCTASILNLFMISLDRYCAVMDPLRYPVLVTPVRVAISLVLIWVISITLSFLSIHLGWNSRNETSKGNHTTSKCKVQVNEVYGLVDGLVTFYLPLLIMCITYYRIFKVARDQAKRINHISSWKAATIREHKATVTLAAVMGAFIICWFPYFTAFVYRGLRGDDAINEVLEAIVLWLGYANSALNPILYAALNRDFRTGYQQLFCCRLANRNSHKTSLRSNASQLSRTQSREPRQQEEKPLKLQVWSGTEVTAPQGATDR
T2 sequence (P25021 whole entry): as above

Cc1cc(/C=C/c2cc3c4c(c2)CCCN4CCC3)cc(C)[n+]1CCCCNc1c(NCCCOc2cccc(CN3CCCCC3)c2)c(=O)c1=O [Compound 8, (E)-1-(4-((3,4-Dioxo-2-((3-(3-(piperidin-1-ylmethyl)phenoxy)propyl)amino)cyclobut-1-en-1-yl)amino)butyl)-2,6-dimethyl-4-(2-(2,3,6,7-tetrahydro-1H,5H-pyrido[3,2,1-ij]quinolin-9-yl)vinyl)pyridin-1-ium]
Kd (hH2R [1]): 74.1 nM | Kd (NLuc-hH2R; representative NanoBRET saturation isotherm, result from single experiment, HEK293T NLuc-hH2R, read-out: Kd* (single experiment)): 29.4 nM | Kd (NLuc-hH2R; saturation binding, live HEK293T cells stably expressing NLuc-hH2R, mean ± SEM, read-out: pKd (NanoBRET) (converted)): 44.7 nM | Kb (hH2R [2]): 16.6 nM
